# Laboratory results: patent US20100115635A1, “Methods for Assessing the Delivery of Exogenous Agents” (Abbott Laboratories, priority 2007, published 2010)
# Test system: MDA-tetR-ODC/Luc liver tumors
# Test: bioluminescence imaging of MDA-tetR-ODC/Luc liver tumors
# Type: in vivo, mice
# Conditions: 4 days after doxycycline treatment
# Excerpt: A MDA-tetR-ODC/Luc cell line was created from MDA-MB435-SLM-derived cell line with a stably integrated tetR-ODC expression cassette and a tet-responsive firefly luciferase reporter. FIG. 6A). The MDA-tetR-ODC/Luc cells were inoculated into skid mice to establish liver tumors. The mice were imaged before doxycycline treatment (top panel of FIG. 6A) or 4 days after doxycycline treatment (bottom panel of FIG. 6A). […] FIG. 6B) Monitoring target knockdown in the MDA-tetR-ODC/Luc cell-derived liver tumors using imaging. The MDA-tetR-ODC/Luc cells were inoculated into skid mice to establish liver tumors. […] Mice were imaged before dosing and 2 days after the last dose. […] The mice were imaged before doxycycline treatment (top panel of FIG. 6B) or 4 days after doxycycline treatment (bottom panel of FIG. 6B).
smiles,measurement,value
C[C@H]1c2cccc(O)c2C(=O)C2=C(O)[C@]3(O)C(=O)C(C(N)=O)=C(O)[C@@H](N(C)C)[C@@H]3[C@@H](O)[C@@H]21 [doxycycline],increase of luminescent signal compared to untreated mice,more than 100 fold
